Measured values taken from ChEMBL document CHEMBL1201862, “PubChem BioAssay data set” (2004).
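1) Cells in 96-well plates. 2) Compound, 48 h, 5 concentrations. 3) Linear interpolation between surrounding doses. 4) Unreached endpoint = highest concentration. GI50 is the concentration that inhibits growth by half.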 Calls of active or inactive are those of the source. Rule as the data show it: active = GI50 up to about 1.1 µM and inactive = higher.

Test system: BT-549
Assay: inhibition of tumour cell growth, NCI panel, 48 h

| SMILES | GI50 |
| --- | --- |
| COc1ccc2c(c1)CCCc1c-2nc2ccccc2c1N | 16.2 µM (inactive) |
| C=C[C@H]1CN2CCc3c([nH]c4c([C@@H]5CCCN5C)c(O)ccc34)[C@@H]2C[C@@H]1C[C@H]1c2[nH]c3ccccc3c2CCN1C | 1.75 µM (inactive) |
| CCCCCCCCCCCCCCCCOCC(O)CO (centres undefined) | 22.2 µM (inactive) |
| O=S(=O)(OI(O)CC(F)(F)F)C(F)(F)F | > 100 µM (inactive) |
| CCNC(=O)Cc1nc2c(O)ncnc2n1C1OC(CO)C(O)C1O (centres undefined) | > 100 µM (inactive) |
| Brc1sc(Br)c2c1[C@H](Br)C[C@@H]2Br | 29 µM (inactive) |
| CC(=O)c1cc(I)c(O)c2ncccc12 | 5.07 µM (inactive) |
| CCOC(=O)CC(c1ccccc1)C(C)(C(=O)OCC)C(=O)OCC (centres undefined) | 70.1 µM (inactive) |
| Cc1oc(N)c(S(=O)(=O)c2cc3ccccc3[n+]([O-])c2N)c1C | > 100 µM (inactive) |
| Cc1ccc(C(=O)N/N=C(\N=N\c2cccc([N+](=O)[O-])c2)c2ccc(N(CCC#N)CCC#N)cc2C)cc1 | 19.6 µM (inactive) |
| C/C(CC1C2CCCC1C2)=N\NC(N)=O (centres undefined) | > 100 µM (inactive) |
| O=C(Cn1cc(Br)c(=O)[nH]c1=O)c1ccc(-c2ccccc2)cc1 | 3.18 µM (inactive) |
| CN(C)CCCCN1c2ccccc2Sc2ccc(N=[N+]=[N-])cc21 | 11.8 µM (inactive) |
| O=C1NC(=O)/C(=C/c2ccc(S(=O)(=O)N/N=C/c3ccccc3)cc2)N1 | > 100 µM (inactive) |
| O=C(NCCNCCCNC(=O)c1cc(-c2ccccc2)nc2ccccc12)c1cccc(OCc2ccccc2)c1OCc1ccccc1 | 1.72 µM (inactive) |
| CCOP(=O)(CCCC(O)CNc1nc(N)nc(Cl)c1/N=N/c1ccc(Cl)cc1)OCC (centres undefined) | 6.28 µM (inactive) |
| Cc1cc(-n2c(/C=C/c3ccc(Cl)cc3)nc3cc(Cl)ccc3c2=O)on1 | > 50 µM (inactive) |
| Cc1c2c(n(CCc3ccccc3)c1C)N(C)N=C(C#N)S2(=O)=O | > 100 µM (inactive) |
| CC(=O)NC(C)(C)C1CC=C(C)CC1 (centres undefined) | > 100 µM (inactive) |
| CC1(C)N=C(C2CCCN2C(=O)OCc2ccccc2)OC1=O (centres undefined) | > 100 µM (inactive) |

| SMILES | GI50 |
| --- | --- |
| Cc1ccc2c(c1)/C(=N/Nc1ccccc1[N+](=O)[O-])C(=O)N2 | 45.8 µM (inactive) |
| [N-]=[N+]=NCc1cccc(Nc2cc(=O)[nH]c(=O)[nH]2)c1 | > 100 µM (inactive) |
| Cn1c(=O)c2c(nc(N/N=C3/SCC(=O)N3Cc3ccccc3)n2C)n(C)c1=O | 74 µM (inactive) |
| O=C(Cc1csc2[n+]1C(=O)/C(=C/c1ccc(Cl)cc1)S2)Nc1ccccc1 | 22.5 µM (inactive) |
| Fc1ccccc1C1SCc2nc3cc4ccccc4cc3n21 (centres undefined) | > 100 µM (inactive) |
| O=C(O)C1C(Br)(c2ccccc2)C1(Br)c1ccccc1 (centres undefined) | 19.9 µM (inactive) |
| Cn1nc(C(=O)N2CC(CCl)c3c2cc(N)c2ccccc32)cc1NC(=O)Nc1cc(C(=O)N2CC(CCl)c3c2cc(N)c2ccccc32)nn1C (centres undefined) | 0.0718 µM (active) |
| Cc1c(Cl)nc(Cl)nc1Cl | 3.65 µM (inactive) |
| CC1CCC2(CC1)NC1=C(CC(C)CC1)C1=C2CC(C)CC1 (centres undefined) | 19.1 µM (inactive) |
| CC(=O)O[C@H]1[C@H](OC(=O)CC(C)(O)CC(=O)O)C[C@]2(C)C3=C(CCC2C1(C)C)[C@]1(C)CC[C@H]([C@H]2CC[C@H](C(C)(C)O)OC2O)[C@@]1(C)[C@@H](O)C3 (some centres undefined) | 15.1 µM (inactive) |
| C(=N\c1ccc2c(c1)Cc1ccccc1-2)/c1ccccn1 | 81.8 µM (inactive) |
| COC(=O)Cc1cc(O)c(C/C=C(\C)CC/C=C(\C)C(O)C(=O)C=C(C)C)cc1O (centres undefined) | 25.6 µM (inactive) |
| CN1COCc2c1ccc1cc3ccc4c(c3nc21)COCN4S(C)(=O)=O | > 100 µM (inactive) |
| C[C@H](Nc1nc(N)c(N=O)c(=O)n1C)C(=O)O | > 10 µM (inactive) |
| O=C(O)Cc1cccc2c(=O)c3cccc([N+](=O)[O-])c3[nH]c12 | 27 µM (inactive) |
| O=c1cccc2n1C[C@H]1CNC[C@H]2C1 | > 100 µM (inactive) |
| CCCCN=C(OC1C=CCCC1)SC (centres undefined) | > 100 µM (inactive) |
| Clc1ccc2c(NCCNc3ccnc4cc(Cl)ccc34)ccnc2c1 | 19.2 µM (inactive) |
| CN(C)c1nc2sc3c(c2c(=O)o1)CCCC3 | 12.3 µM (inactive) |
